Values after ≈ are worked out from the molar mass of the structure shown.
How the values were obtained:
[1] = Solubility in alcohol and other solvents; type: physicochemical
Staphylococcus aureus = test: In vitro soap bacteriostatic test (agar dilution, spot inoculation, 35°, 48 hours); type: cell-based; details: for MIC: Staphylococcus aureus, without soap, read-out: Compound Activity Without Soap: minimum concentration where S. aureus growth is completely inhibited; for Compound Activity With Soap: minimum concentration where S. aureus growth is completely inhibited: ratio of soap to compound 100:1
Experimental: The antibacterial properties of the compounds prepared in Examples 1 - 14 were tested in soap. The in vitro soap bacteriostatic tests were conducted as follows: The compound is dissolved in a suitable solvent, usually dimethylformamide, to give a 6% solution. One-half ml. aliquot was added to 100 ml. of 3% solution of bar soap stock solution. The solid soap used was a neutral white toilet soap of the "LUX" type. The fatty acids in this soap were of the following composition: This yields an aqueous soap solution containing 30,000 mcg./ml. soap and 300 mcg./ml. compound. The soap/compound ratio in the latter is 100/l. A two-fold serial dilution series is prepared with this solution using sterile distilled water in test tubes such that the final volume in each tube is 2.0 ml. To each test tube is added 28 ml. of molten Dextrose Trypticase Extract Agar (B.B.L.). The tube contents were poured into sterile Petri plates and allowed to harden. The highest final concentration of compound in the serial dilution series is 20 mcg./ml. Plates were spot inoculated with a broth culture of Staphylococcus aureus and incubated at 35° for 48 hours. The lowest concentration completely inhibiting growth of the test organism, in mcg./ml. is recorded as the bacteriostatic concentration of the compound. Tests in the absence of soap are made in a similar manner except that all dilutions are made in solvent. The final concentration in the agar should not be greater than 5%. The results of these tests with the compounds of the present invention as compared with compounds having chemical structures closely related to the compounds of the present invention (designated by the symbol "C") are set forth in the Table. Column 1 contains the data as to the activity of the test solution without soap; column 2 refers to tests in which the ratio of soap to compound is 100:1. […] Growth is observed at the next lower concentration.

in vivo = details: rat, determined in rats, oral toxicity
Text: For example, 4-chloro-3', 5'-di(trifluoromethyl)-benzanilide has an LD50 of […], determined in rats.

SMILES | solubility in alcohol solvents [1] | MIC (Staphylococcus aureus) | Compound Activity With Soap: minimum concentration where S. aureus growth is completely inhibited (Staphylococcus aureus) | LD50 (in vivo)
O=C(Nc1ccc(Br)c(C(F)(F)F)c1)c1ccc(Br)cc1 [Compound 13, 4,4'-dibromo-α,α,α-trifluoro-m-benzotoluidide] | soluble or fairly soluble | 1.25 µg/mL (≈ 2.95 µM) | 0.312 µg/mL | –
O=C(Nc1cc(C(F)(F)F)cc(C(F)(F)F)c1)c1ccc(Cl)cc1 [Compound 19, 4-chloro-3',5'-di(trifluoromethyl)-benzanilide] | soluble or fairly soluble | 0.625 µg/mL (≈ 1.7 µM) | 0.312 µg/mL | 6000 mg/kg
O=C(Nc1cc(C(F)(F)F)cc(C(F)(F)F)c1)c1ccc(Br)cc1 [Compound 20, 4-bromo-α,α,α,α',α',α' -hexafluorobenzo-3',5'-xylidide] | soluble or fairly soluble | 0.312 µg/mL (≈ 0.757 µM) | 0.312 µg/mL | –
O=C(Nc1cc(C(F)(F)F)cc(C(F)(F)F)c1)c1ccc(F)cc1 [Compound C27] | – | > 20 µg/mL | 10.0 µg/mL | –
O=C(Nc1cc(C(F)(F)F)cc(C(F)(F)F)c1)c1cccc(C(F)(F)F)c1 [Compound C28] | – | > 10 µg/mL | B (Inactive at 10 mcg./ml. (highest concentration tested)) | –
O=C(Nc1cc(C(F)(F)F)cc(C(F)(F)F)c1)c1cccc(Br)c1 [Compound C29] | – | > 10 µg/mL | B (Inactive at 10 mcg./ml. (highest concentration tested)) | –
O=C(Nc1cccc(Cl)c1)c1ccc(Cl)cc1 [Compound C30] | – | > 20 µg/mL | 5.0 µg/mL | –
O=C(Nc1ccc(Cl)c(Cl)c1)c1ccc(Cl)cc1 [Compound C31] | – | > 20 µg/mL | 10.0 µg/mL | –
O=C(Nc1cc(Cl)cc(Cl)c1)c1ccc(Cl)cc1 [Compound C32] | – | > 20 µg/mL | 10.0 µg/mL | –
O=C(Nc1ccc(Cl)cc1)c1ccc(Cl)c(Cl)c1 [Compound C33] | – | > 10 µg/mL | B (Inactive at 10 mcg./ml. (highest concentration tested)) | –
O=C(Nc1cccc(Cl)c1)c1ccc(Cl)c(Cl)c1 [Compound C34] | – | > 20 µg/mL | A (Inactive at 20 mcg./ml. (highest concentration tested)) | –
O=C(Nc1ccc(Cl)c(Cl)c1)c1ccc(Cl)c(Cl)c1 [Compound C35] | – | > 10 µg/mL | B (Inactive at 10 mcg./ml. (highest concentration tested)) | –
O=C(Nc1cc(Cl)cc(Cl)c1)c1ccc(Cl)c(Cl)c1 [Compound C36] | – | > 10 µg/mL | B (Inactive at 10 mcg./ml. (highest concentration tested)) | –
O=C(Nc1ccc(Cl)c(Cl)c1)c1ccc(Br)cc1 [Compound C37] | – | 10 µg/mL (≈ 29 µM) | 20.0 µg/mL | –
O=C(Nc1ccc(Cl)c(Cl)c1)c1ccc(C(F)(F)F)cc1 [Compound C38] | – | > 20 µg/mL | 10.0 µg/mL | –
CC(C)(C)c1ccc(C(=O)Nc2cccc(C(F)(F)F)c2)cc1 [Compound C39] | – | > 20 µg/mL | 5.0 µg/mL | –

Reference: patent US3981814A, “Bacteriostatic substituted benzanilide compositions and methods for their use” (Givaudan Corporation, priority 1975, dated 1976)
